Laboratory results from patent EP4603105A1, “PHARMACEUTICAL COMPOSITION CONTAINING CYCLIC COMPOUND HAVING SELECTIVE KRAS INHIBITORY EFFECT AGAINST HRAS AND NRAS” (CHUGAI SEIYAKU KABUSHIKI KAISHA, priority 2022, dated 2024).
Where a SMILES comes first, the peptide text is derived from it. Bridges are numbered along the chain shown (N, C = ends). [ ]: non-standard residue; d: D form. The star is where a group is joined. hPhe(3-Cl-4-CF3) = N[C@@H](CCc1ccc(C(F)(F)F)c(Cl)c1)C(=O)O; NPrPhe(4-CF3) = CCCN[C@@H](Cc1ccc(C(F)(F)F)cc1)C(=O)O; NMeGly(cPent) = CN[C@H](C(=O)O)C1CCCC1; Pro(4,4-F2) = O=C(O)[C@@H]1CC(F)(F)CN1; Hyp = O=C(O)[C@@H]1C[C@@H](O)CN1; NMeD = CN[C@@H](CC(=O)O)C(=O)O; NMeL = CN[C@@H](CC(C)C)C(=O)O; Morpholide = C1CN(*)CCO1; NMeA = CN[C@@H](C)C(=O)O; Ac5c = NC1(C(=O)O)CCCC1; Aze = O=C(O)[C@@H]1CCN1; NEtG = CCNCC(=O)O; Sar = CNCC(=O)O

How the values were obtained:
[1] = test system: human lung cancer strain NCI-H441; format: cell-based
In short: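 Step one: dispense the test compound in serial DMSO dilutions. Step three: add the reagent and measure […].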

[2] = target: GDP-bound NRAS wild-type protein (Homo sapiens, UniProt P01111); assay: Binding to NRAS by surface plasmon resonance (SPR), KD and KD ratio to KRAS
In short: (§1)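 Running buffer contained 10 µM GDP and 10 mM MgCl2 to keep RAS in the GDP state, with 4% DMSO at pH 7.4. Compounds were flowed at 100 µL/min in 75 s steps of rising concentration over captured biotin-Avi RAS at 30°C. Sensorgrams were fitted 1:1 for KD.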

HRAS wild-type protein = HRAS wild-type protein (Homo sapiens, UniProt P01112); assay: Binding to HRAS by surface plasmon resonance (SPR), KD and KD ratio to KRAS
In short: as §1

[3] = ratio of KD for GDP-bound NRAS wild-type protein to KD for KRAS
[4] = ratio of KD for HRAS wild-type protein to KD for KRAS

Chain of GDP-bound NRAS wild-type protein (P01111 whole entry): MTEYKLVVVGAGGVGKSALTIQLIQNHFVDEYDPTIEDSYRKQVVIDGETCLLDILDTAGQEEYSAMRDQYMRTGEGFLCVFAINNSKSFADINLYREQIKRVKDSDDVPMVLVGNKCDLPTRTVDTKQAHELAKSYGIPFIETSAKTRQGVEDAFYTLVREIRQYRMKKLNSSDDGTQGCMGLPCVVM
Chain of HRAS wild-type protein (P01112 whole entry): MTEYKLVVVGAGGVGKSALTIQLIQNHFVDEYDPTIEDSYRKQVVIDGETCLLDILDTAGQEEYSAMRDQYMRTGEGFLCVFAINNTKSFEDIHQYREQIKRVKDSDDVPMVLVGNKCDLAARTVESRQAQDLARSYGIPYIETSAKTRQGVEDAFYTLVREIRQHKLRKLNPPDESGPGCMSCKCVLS

Row | Compound | IC50 [1] [nM] | NRAS /KRAS ([2]; ratio of KD value for GDP-bound NRAS wild-type protein to KD value for KRAS (SPR)) | HRAS /KRAS (HRAS wild-type protein; ratio of KD value for HRAS wild-type protein to KD value for KRAS (SPR)) | NRAS /KRAS ([2]; ratio of the KD value with respect to GDP-bound NRAS wild-type protein to the KD value with respect to KRAS) | HRAS /KRAS (HRAS wild-type protein; ratio of the KD value with respect to HRAS wild-type protein to the KD value with respect to KRAS) | NRAS /KRAS [2, 3] | HRAS /KRAS (HRAS wild-type protein; [4])
1 | CCCN1C(=O)[C@@H]2CCN2C(=O)[C@H](C)N(C)C(=O)[C@H]([C@@H](C)CC)NC(=O)[C@H](CC(C)C)N(C)C(=O)C[C@@H](C(=O)N2CCOCC2)N(C)C(=O)[C@H](C2CCCC2)N(C)C(=O)C2(CCCC2)NC(=O)[C@@H]2C[C@@H](OCC)CN2C(=O)[C@H](CCc2ccc(C(F)(F)F)c(Cl)c2)NC(=O)CN(C)C(=O)[C@@H]1Cc1ccc(C(F)(F)F)cc1 [PP0228] ([NMeL]I[NMeA][Aze][NPrPhe(4-CF3)][Sar][hPhe(3-Cl-4-CF3)][Hyp](Et)[Ac5c][NMeGly(cPent)][NMeD]-Morpholide; lactam N-11) | 1.8 | – | – | – | – | C (A compound having a KD ratio of 0.1 or more and less than 3 is denoted as C) | B (a compound having 3 or more and less than 10 is denoted as B)
2 | CCO[C@@H]1C[C@H]2C(=O)NC3(CCC3)C(=O)N(C)[C@@H](CC(F)F)C(=O)N(C)[C@H](C(=O)N3CCOCC3)CC(=O)N(C)[C@@H](CC(C)C)C(=O)N[C@@H]([C@@H](C)CC)C(=O)N(C)CC(=O)N(C)[C@H]3CCCCN(C3=O)[C@@H](Cc3ccc(C(F)(F)F)cc3)C(=O)N(C)CC(=O)N[C@@H](CCc3cc(F)c(C(F)(F)F)c(F)c3)C(=O)N2C1 [PP0813] | 90.3 | – | – | – | – | C (A compound having a KD ratio of 0.1 or more and less than 3 is denoted as C) | B (a compound having 3 or more and less than 10 is denoted as B)
3 | CC[C@H](C)[C@@H]1NC(=O)[C@H](CC(C)C)N(C)C(=O)C[C@@H](C(=O)N2CCOCC2)N(C)C(=O)[C@H](C2CCCC2)N(C)C(=O)C2(CCC2)NC(=O)[C@@H]2C[C@@H](OC)CN2C(=O)[C@H](CCc2cc(F)c(C(F)(F)F)c(F)c2)NC(=O)CN(C)C(=O)[C@H](Cc2ccc(C(F)(F)F)cc2)N2CCCC[C@@H](C2=O)N(C)C(=O)CN(C)C1=O [PP1003] | 29.1 | – | – | – | – | C (A compound having a KD ratio of 0.1 or more and less than 3 is denoted as C) | B (a compound having 3 or more and less than 10 is denoted as B)

The remaining molecules from weak to strong by IC50 [1], led by results:

Row | IC50 [1] [nM] | Compound | NRAS /KRAS ([2]; ratio of KD value for GDP-bound NRAS wild-type protein to KD value for KRAS (SPR)) | HRAS /KRAS (HRAS wild-type protein; ratio of KD value for HRAS wild-type protein to KD value for KRAS (SPR)) | NRAS /KRAS ([2]; ratio of the KD value with respect to GDP-bound NRAS wild-type protein to the KD value with respect to KRAS) | HRAS /KRAS (HRAS wild-type protein; ratio of the KD value with respect to HRAS wild-type protein to the KD value with respect to KRAS) | NRAS /KRAS [2, 3] | HRAS /KRAS (HRAS wild-type protein; [4])
4 | 68.9 | CCCN1C(=O)CN(C)C(=O)CN(CC)C(=O)[C@H]([C@@H](C)CC)NC(=O)[C@H](CC(C)C)N(C)C(=O)C[C@@H](C(=O)N(C)C)NC(=O)[C@H](C2CCCC2)N(C)C(=O)C2(CCCC2)NC(=O)[C@@H]2CC(F)(F)CN2C(=O)[C@H](CCc2ccc(C(F)(F)F)c(Cl)c2)NC(=O)CN(C)C(=O)[C@@H]1Cc1ccc(C(F)(F)F)cc1 [PP0369] ([NMeL]I[NEtG][Sar][NPrPhe(4-CF3)][Sar][hPhe(3-Cl-4-CF3)][Pro(4,4-F2)][Ac5c][NMeGly(cPent)]D-NMe2; lactam N-11) | – | – | – | – | B (a compound having 3 or more and less than 10 is denoted as B) | C (A compound having a KD ratio of 0.1 or more and less than 3 is denoted as C)
5 | 50.1 | CCC[C@H]1C(=O)N[C@@H]([C@@H](C)CC)C(=O)N(C)CC(=O)N(C)[C@H]2C/C=C\CCN(C2=O)[C@@H](Cc2ccc(C(F)(F)F)cc2)C(=O)N(C)CC(=O)N[C@@H](CCc2ccc(C(F)(F)F)c(Cl)c2)C(=O)N2CCCCC[C@H]2C(=O)NC2(CC(C)(C)C2)C(=O)N(C)[C@@H](C(CC)CC)C(=O)N(C)[C@H](C(=O)N(C)C)CC(=O)N1C [PP2964] | – | – | – | – | AA (a compound having 20 or more is denoted as AA) | A (a compound having 10 or more and less than 20 is denoted as A)
6 | 7.2 | C#CC[C@H]1C(=O)N[C@@H]([C@@H](C)CC)C(=O)N(C)CC(=O)N(C)[C@H]2C/C=C\CCN(C2=O)[C@@H](Cc2ccc(C(F)(F)F)cc2)C(=O)N(C)CC(=O)N[C@@H](CCc2cc(F)c(C(F)(F)F)c(F)c2)C(=O)N2C[C@H](OCC)C[C@H]2C(=O)NC2(CCC2)C(=O)N(C)[C@@H](C2CCCC2)C(=O)N(C)[C@H](C(=O)N(C)CCC)CC(=O)N1C [PP1703] | A (a compound having 10 or more and less than 20 is denoted as A) | A (a compound having 10 or more and less than 20 is denoted as A) | – | – | – | –
7 | 6.9 | C#CC[C@H]1C(=O)N[C@@H]([C@@H](C)CC)C(=O)N(C)CC(=O)N(C)[C@H]2C/C=C\CCN(C2=O)[C@@H](Cc2ccc(C(F)(F)F)cc2)C(=O)N(C)CC(=O)N[C@@H](CCc2ccc(C(F)(F)F)c(OC)c2)C(=O)N2C[C@H](OCC)C[C@H]2C(=O)NC2(CC(C)(C)C2)C(=O)N(C)[C@@H](C2CCCC2)C(=O)N(C)[C@H](C(=O)N(C)CC)CC(=O)N1C [PP2051] | – | – | A (a compound having 10 or more and less than 20 is denoted as A) | A (a compound having 10 or more and less than 20 is denoted as A) | – | –
